These results are taken from patent US8906868B2, “Aminoglycoside derivatives” (Rempex Pharmaceuticals, Inc., priority 2010, dated 2014).

The test system of assay [1] is PAM3073 aac(6′)-I. Description: microbe, parasite or virus in culture. It counts as cell-based, Pseudomonas aeruginosa. The conditions noted are these: Pseudomonas aeruginosa, Table 5; read-out: Compound MIC on Bacterial Strains: Pseudomonas aeruginosa PAM3073 aac(6′)-I. The gist of the method: (§1)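 CLSI broth microdilution in CaMHB; 2-fold serial dilutions; 5×10^5 CFU/ml final inoculum; 18 h, 35° C; OD600 turbidity plus visual check.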

Assay [2] concerns PAM3072 aac(6′)-II. Kind of assay: microbe, parasite or virus in culture. The class given is cell-based, Pseudomonas aeruginosa. The conditions noted are these: Pseudomonas aeruginosa, Table 5; read-out: Compound MIC on Bacterial Strains: Pseudomonas aeruginosa PAM3072 aac(6′)-II. The gist of the method:
as §1

Assay [3] has as its system Staphylococcus aureus (ATCC 29213). Kind of assay: MIC, broth microdilution. The conditions noted are these: Staphylococcus aureus. (Broth dilution looks for growth in wells or tubes with falling amounts of substance.)
The test system of assay [4] is EC1002 aph(3′)-IV. Kind of assay: organism not typed. It counts as cell-based. Particulars: read-out: Compound MIC on Bacterial Strains: EC1002 aph(3′)-IV. A digest of the protocol:
(§2)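 CLSI broth microdilution; CaMHB; 2-fold dilutions; 5×10^5 CFU/ml; 18 h, 35° C; OD600 turbidity plus visual check for MIC.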

Assay [5] deals with Pseudomonas aeruginosa (ATCC 27853). Kind of assay: MIC, broth microdilution. Particulars: Pseudomonas aeruginosa.
Assay [6] deals with ECM6009 aac(3)-II. Description: microbe, parasite or virus in culture. It counts as cell-based, Escherichia coli. Particulars: Escherichia coli, read-out: Compound MIC on Bacterial Strains: ECM6009 aac(3)-II. A digest of the protocol:
as §2

The test system of assay [7] is ECM6010 ant(2″)-I. Description: microbe, parasite or virus in culture. The class given is cell-based, Escherichia coli. The conditions noted are these: Escherichia coli, read-out: Compound MIC on Bacterial Strains: ECM6010 ant(2″)-I. The gist of the method: as §2
Assay [8] has as its system ECM6006 aph(3′)-III. Kind of assay: microbe, parasite or virus in culture. It counts as cell-based, Escherichia coli. The conditions noted are these: Escherichia coli, read-out: Compound MIC on Bacterial Strains: ECM6006 aph(3′)-III. A digest of the protocol:
as §2

Assay [9] concerns ECM6011 aph(3′)-I. Kind of assay: microbe, parasite or virus in culture. The class given is cell-based, Escherichia coli. Particulars: Escherichia coli, read-out: Compound MIC on Bacterial Strains: ECM6011 aph(3′)-I. The gist of the method:
as §2

Assay [10] relates to Acinetobacter baumannii (ATCC 19606). Kind of assay: MIC, broth microdilution. Particulars: Acinetobacter baumannii, ATCC19606, read-out: Compound MIC on Bacterial Strains: A. baumannii ATCC 19606.
Assay [11] relates to Sa 287 aac(6′) + aph(2″). Description: microbe, parasite or virus in culture. It counts as cell-based, Staphylococcus aureus. The conditions noted are these: Staphylococcus aureus, 18 h; Table 5; read-out: Compound MIC on Bacterial Strains: Staphylococcus aureus Sa 287 aac(6′) + aph(2″). How it is done:
To compare microbiological activity of the test compounds, minimum inhibitory concentrations (MIC.s) were determined. Antibiotic MICs were obtained using the broth microdilution method according to Clinical and Laboratory Standards Institute (CLSI) approved guidelines (Methods for dilution antimicrobial susceptibility tests for bacteria that grow aerobically; approved standard—7th ed. CLSI document M7-A7. Clinical and Laboratory Standards Institute, Wayne, Pa., incorporated herein by reference in its entirety). Antibiotics were dissolved as specified by CLSI (Performance standards for antimicrobial susceptibility testing; Seventeenth informational supplement. CLSI document M100-S17. Clinical and Laboratory Standards Institute, Wayne, Pa., incorporated herein by reference in its entirety), and were serially diluted 2-fold in cation adjusted Mueller Hinton Broth (CaMHB) at 2× concentration. Bacterial inoculums were prepared in CaMHB by suspension of a colony from an agar plate that was prepared the previous day to obtain a final concentration of 5×10^5CFU/ml. The plates were incubated for 18 hours at 35° C. […] MIC.s were determined by reading the turbidity of plate wells using a SpectraMax Plus384 plate reader (Molecular Devices, Sunnyvale, Calif., USA) at 600 nm and were confirmed by visual inspection.

Assay [12] has as its system Escherichia coli (ATCC 25922). Kind of assay: MIC, broth microdilution. The conditions noted are these: Escherichia coli.
Assay [13] has as its system ECM6003 rmtB. Description: microbe, parasite or virus in culture. It counts as cell-based, Escherichia coli. The conditions noted are these: Escherichia coli; Table 3; read-out: Compound MIC on Bacterial Strains: ECM6003 rmtB. The gist of the method: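 Broth microdilution per CLSI M7-A7 in cation-adjusted Mueller Hinton broth with 2-fold serial dilutions and 5×10^5 CFU/ml inoculum. Incubated 18 hours at 35 °C; MIC read by turbidity at 600 nm and confirmed visually.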

Assay [14] concerns ACM1006 acc(6′)-Ib. Kind of assay: microbe, parasite or virus in culture. It counts as cell-based, Acinetobacter baumannii. Particulars: Acinetobacter baumannii; Table 4; read-out: Compound MIC on Bacterial Strains: Acinetobacter baumannii ACM1006 acc(6′)-Ib. The gist of the method: as §1
In assay [15] the test system is ACM1005 ATCC 19004. Description: MIC, broth microdilution. The class given is cell-based, Acinetobacter baumannii. The conditions noted are these: Acinetobacter baumannii, ATCC19004; Table 4; read-out: Compound MIC on Bacterial Strains: Acinetobacter baumannii ACM1005 ATCC 19004. A digest of the protocol: as §1
The test system of assay [16] is Klebsiella pneumonia (ATCC 43816). Kind of assay: MIC, broth microdilution. The conditions noted are these: Klebsiella pneumoniae, ATCC43816, read-out: Compound MIC on Bacterial Strains: K. pneumonia ATCC 43816.
Assay [17] concerns EC1001 acc(6′)-Ib. Description: microbe, parasite or virus in culture. The class given is cell-based, Escherichia coli. Particulars: Escherichia coli; Table 4; read-out: Compound MIC on Bacterial Strains: Escherichia coli EC1001 acc(6′)-Ib. The gist of the method:
as §1

Assay [18] has as its system ECM6007 aac(6′) + aph(2″). Kind of assay: microbe, parasite or virus in culture. It counts as cell-based, Escherichia coli. Particulars: Escherichia coli, 18 h; Table 4; read-out: Compound MIC on Bacterial Strains: Escherichia coli ECM6007 aac(6′) + aph(2″). A digest of the protocol:
as §1

[19] abbreviates: ATCC29213, read-out: Compound MIC on Bacterial Strains: S. aureus ATCC 29213, QC strain, Table 2.
The mark [20] stands for this setting: ATCC29213, read-out: Compound MIC on Bacterial Strains: Staphylococcus aureus SAM1000 ATCC 29213, Table 5.
The mark [21] stands for this setting: ATCC27853, read-out: Compound MIC on Bacterial Strains: P. aeruginosa ATCC 27853.
Where [22] appears, read: ATCC27853, read-out: Compound MIC on Bacterial Strains: Pseudomonas aeruginosa PAM3034 ATCC 27853.
The mark [23] stands for this setting: ATCC25922, read-out: Compound MIC on Bacterial Strains: E. coli ATCC 25922.
Setting [24] is: ATCC25922, read-out: Compound MIC on Bacterial Strains: ECM6000 ATCC 25922.
Where [25] appears, read: ATCC25922, read-out: Compound MIC on Bacterial Strains: Escherichia coli ECM6000 ATCC 25922.

Values after ≈ are worked out from the molar mass of the structure shown. Read-outs that look alike come from different tables or passages of the source.

For `CNC[C@@H]1CCC(N)[C@@H](OC2C(O)C(O[C@H]3OCC(C)(O)[C@H](NC)C3O)[C@H](NC(=O)[C@@H](O)C(O)CN)C[C@@H]2N)O1` (stereo in doubt) [Compound 23, (2S,3R)-4-amino-N-((1R,2S,3S,4R,5S)-5-amino-4-((2R,3R,6S)-3-amino-6-((methylamino)methyl)tetrahydro-2H-pyran-2-yloxy)-2-((2R,3R,4R,5R)-3,5-dihydroxy-5-methyl-4-(methylamino)tetrahydro-2H-pyran-2-yloxy)-3-hydroxycyclohexyl)-2,3-dihydroxybutanamide], the MIC in [1] was 1 to 8 µg/mL (≈ 1.72 to 13.8 µM); in [2] it was over 8 µg/mL; in assay [3] (setting [19]), under 1 µg/mL; in assay [3] (setting [20]), 1 to 8 µg/mL (≈ 1.72 to 13.8 µM); in assay [4], 1 to 8 µg/mL (≈ 1.72 to 13.8 µM); in [5] (setting [21]), 1 to 8 µg/mL (≈ 1.72 to 13.8 µM). For the same compound, the MIC in assay [5] (setting [22]) was 1 to 8 µg/mL (≈ 1.72 to 13.8 µM); in assay [6] it was 1 to 8 µg/mL (≈ 1.72 to 13.8 µM); in assay [7], 1 to 8 µg/mL (≈ 1.72 to 13.8 µM); in [8] it was 1 to 8 µg/mL (≈ 1.72 to 13.8 µM); in [9] it was 1 to 8 µg/mL (≈ 1.72 to 13.8 µM); in assay [10] it was over 8 µg/mL. Moreover, the MIC was 1 to 8 µg/mL in assay [11]; under 1 µg/mL in assay [12] (setting [23]); 1 to 8 µg/mL (≈ 1.72 to 13.8 µM) in assay [12] (setting [24]); 1 to 8 µg/mL (≈ 1.72 to 13.8 µM) in assay [12] (setting [25]); 1 to 8 µg/mL (≈ 1.72 to 13.8 µM) in [13]; 1 to 8 µg/mL (≈ 1.72 to 13.8 µM) in [14]. Further, the MIC in assay [15] is 1 to 8 µg/mL (≈ 1.72 to 13.8 µM); in [16], under 1 µg/mL; in assay [17] it was 1 to 8 µg/mL (≈ 1.72 to 13.8 µM); in [18], under 1 µg/mL.
In the case of `CN[C@@H]1C(O)[C@@H](OC2C(O)C(O[C@H]3O[C@H](CN)CCC3N)[C@@H](N)C[C@H]2NC(=O)[C@@H](O)[C@@H](O)CN)OCC1(C)O` (stereo partly drawn) [Compound 21, (2S,3R)-4-amino-N-((1R,2S,3S,4R,5S)-5-amino-4-((2R,3R,6S)-3-amino-6-(aminomethyl)tetrahydro-2H-pyran-2-vyloxy)-2-((2R,3R,4R,5R)-3,5-dihydroxy-5-methyl-4-(methylamino)tetrahydro-2H-pyran-2-yloxy)-3-hydroxycyclohexyl)-2,3-dihydroxybutanamide], the MIC in assay [1] was 1 to 8 µg/mL (≈ 1.76 to 14.1 µM); in [2] it was over 8 µg/mL; in assay [3] (setting [19]) it was under 1 µg/mL; in assay [3] (setting [20]), under 1 µg/mL; in assay [4], 1 to 8 µg/mL (≈ 1.76 to 14.1 µM); in assay [5] (setting [21]), under 1 µg/mL. The MIC was 1 to 8 µg/mL (≈ 1.76 to 14.1 µM) in assay [5] (setting [22]); under 1 µg/mL in assay [6]; under 1 µg/mL in [7]; 1 to 8 µg/mL (≈ 1.76 to 14.1 µM) in [8]; 1 to 8 µg/mL (≈ 1.76 to 14.1 µM) in [9]; over 8 µg/mL in assay [10]. In addition, the MIC is 1 to 8 µg/mL in [11]; under 1 µg/mL in [12] (setting [23]); 1 to 8 µg/mL (≈ 1.76 to 14.1 µM) in assay [12] (setting [24]); 1 to 8 µg/mL (≈ 1.76 to 14.1 µM) in assay [12] (setting [25]); 1 to 8 µg/mL (≈ 1.76 to 14.1 µM) in [13]; 1 to 8 µg/mL (≈ 1.76 to 14.1 µM) in assay [14]. Also, the MIC in assay [15] is 1 to 8 µg/mL (≈ 1.76 to 14.1 µM); in assay [16], under 1 µg/mL; in [17], over 8 µg/mL; in [18], under 1 µg/mL.
`NC[C@H]1O[C@H](O[C@H]2[C@H](O)[C@@H](O[C@H]3O[C@H](CO)[C@@H](O)[C@H](N)[C@H]3O)[C@H](N)C[C@@H]2N)[C@H](N)C[C@@H]1O` [Tobramycin, reference compound]: the MIC in assay [1] is over 8 µg/mL; in assay [2], over 8 µg/mL; in assay [3] (setting [19]), under 1 µg/mL; in assay [3] (setting [20]) it was under 1 µg/mL; in assay [4], under 1 µg/mL; in [5] (setting [21]), under 1 µg/mL. The MIC in [5] (setting [22]) is under 1 µg/mL; in assay [6] it was over 8 µg/mL; in assay [7], over 8 µg/mL; in assay [8] it was 1 to 8 µg/mL (≈ 2.14 to 17.1 µM); in assay [9] it was 1 to 8 µg/mL (≈ 2.14 to 17.1 µM); in assay [10], 1 to 8 µg/mL (≈ 2.14 to 17.1 µM). In addition, the MIC in assay [11] is over 8 µg/mL; in assay [12] (setting [23]), under 1 µg/mL; in assay [12] (setting [24]) it was under 1 µg/mL; in assay [12] (setting [25]), under 1 µg/mL; in [13] it was over 8 µg/mL; in assay [14], over 8 µg/mL. Further, the MIC in assay [15] is under 1 µg/mL; in [16] it was under 1 µg/mL; in [17] it was over 8 µg/mL; in assay [18], over 8 µg/mL.
